Results from US20250114345A1, “COMPOUNDS AND COMPOSITIONS AS CBP/P300 DEGRADERS AND USES THEREOF” (Oncopia Therapeutics, Inc. d/b/a/ SK Life Science Labs, priority 2023, published 2025).

Assays:
p300 = target: T1, p300 (Homo sapiens, UniProt Q09472); experiment: P300 degradation, HiBit technology in A549 P300 HiBit cells (2 h); format: cell-based; conditions: 2 hrs post treatment; for Dmax: A549, A549 P300 HiBit cells; for DC50: A549 P300 HiBit cells
T1 construct: host or cells: A549 P300 HiBit cells
T1 sequence (Q09472 whole entry): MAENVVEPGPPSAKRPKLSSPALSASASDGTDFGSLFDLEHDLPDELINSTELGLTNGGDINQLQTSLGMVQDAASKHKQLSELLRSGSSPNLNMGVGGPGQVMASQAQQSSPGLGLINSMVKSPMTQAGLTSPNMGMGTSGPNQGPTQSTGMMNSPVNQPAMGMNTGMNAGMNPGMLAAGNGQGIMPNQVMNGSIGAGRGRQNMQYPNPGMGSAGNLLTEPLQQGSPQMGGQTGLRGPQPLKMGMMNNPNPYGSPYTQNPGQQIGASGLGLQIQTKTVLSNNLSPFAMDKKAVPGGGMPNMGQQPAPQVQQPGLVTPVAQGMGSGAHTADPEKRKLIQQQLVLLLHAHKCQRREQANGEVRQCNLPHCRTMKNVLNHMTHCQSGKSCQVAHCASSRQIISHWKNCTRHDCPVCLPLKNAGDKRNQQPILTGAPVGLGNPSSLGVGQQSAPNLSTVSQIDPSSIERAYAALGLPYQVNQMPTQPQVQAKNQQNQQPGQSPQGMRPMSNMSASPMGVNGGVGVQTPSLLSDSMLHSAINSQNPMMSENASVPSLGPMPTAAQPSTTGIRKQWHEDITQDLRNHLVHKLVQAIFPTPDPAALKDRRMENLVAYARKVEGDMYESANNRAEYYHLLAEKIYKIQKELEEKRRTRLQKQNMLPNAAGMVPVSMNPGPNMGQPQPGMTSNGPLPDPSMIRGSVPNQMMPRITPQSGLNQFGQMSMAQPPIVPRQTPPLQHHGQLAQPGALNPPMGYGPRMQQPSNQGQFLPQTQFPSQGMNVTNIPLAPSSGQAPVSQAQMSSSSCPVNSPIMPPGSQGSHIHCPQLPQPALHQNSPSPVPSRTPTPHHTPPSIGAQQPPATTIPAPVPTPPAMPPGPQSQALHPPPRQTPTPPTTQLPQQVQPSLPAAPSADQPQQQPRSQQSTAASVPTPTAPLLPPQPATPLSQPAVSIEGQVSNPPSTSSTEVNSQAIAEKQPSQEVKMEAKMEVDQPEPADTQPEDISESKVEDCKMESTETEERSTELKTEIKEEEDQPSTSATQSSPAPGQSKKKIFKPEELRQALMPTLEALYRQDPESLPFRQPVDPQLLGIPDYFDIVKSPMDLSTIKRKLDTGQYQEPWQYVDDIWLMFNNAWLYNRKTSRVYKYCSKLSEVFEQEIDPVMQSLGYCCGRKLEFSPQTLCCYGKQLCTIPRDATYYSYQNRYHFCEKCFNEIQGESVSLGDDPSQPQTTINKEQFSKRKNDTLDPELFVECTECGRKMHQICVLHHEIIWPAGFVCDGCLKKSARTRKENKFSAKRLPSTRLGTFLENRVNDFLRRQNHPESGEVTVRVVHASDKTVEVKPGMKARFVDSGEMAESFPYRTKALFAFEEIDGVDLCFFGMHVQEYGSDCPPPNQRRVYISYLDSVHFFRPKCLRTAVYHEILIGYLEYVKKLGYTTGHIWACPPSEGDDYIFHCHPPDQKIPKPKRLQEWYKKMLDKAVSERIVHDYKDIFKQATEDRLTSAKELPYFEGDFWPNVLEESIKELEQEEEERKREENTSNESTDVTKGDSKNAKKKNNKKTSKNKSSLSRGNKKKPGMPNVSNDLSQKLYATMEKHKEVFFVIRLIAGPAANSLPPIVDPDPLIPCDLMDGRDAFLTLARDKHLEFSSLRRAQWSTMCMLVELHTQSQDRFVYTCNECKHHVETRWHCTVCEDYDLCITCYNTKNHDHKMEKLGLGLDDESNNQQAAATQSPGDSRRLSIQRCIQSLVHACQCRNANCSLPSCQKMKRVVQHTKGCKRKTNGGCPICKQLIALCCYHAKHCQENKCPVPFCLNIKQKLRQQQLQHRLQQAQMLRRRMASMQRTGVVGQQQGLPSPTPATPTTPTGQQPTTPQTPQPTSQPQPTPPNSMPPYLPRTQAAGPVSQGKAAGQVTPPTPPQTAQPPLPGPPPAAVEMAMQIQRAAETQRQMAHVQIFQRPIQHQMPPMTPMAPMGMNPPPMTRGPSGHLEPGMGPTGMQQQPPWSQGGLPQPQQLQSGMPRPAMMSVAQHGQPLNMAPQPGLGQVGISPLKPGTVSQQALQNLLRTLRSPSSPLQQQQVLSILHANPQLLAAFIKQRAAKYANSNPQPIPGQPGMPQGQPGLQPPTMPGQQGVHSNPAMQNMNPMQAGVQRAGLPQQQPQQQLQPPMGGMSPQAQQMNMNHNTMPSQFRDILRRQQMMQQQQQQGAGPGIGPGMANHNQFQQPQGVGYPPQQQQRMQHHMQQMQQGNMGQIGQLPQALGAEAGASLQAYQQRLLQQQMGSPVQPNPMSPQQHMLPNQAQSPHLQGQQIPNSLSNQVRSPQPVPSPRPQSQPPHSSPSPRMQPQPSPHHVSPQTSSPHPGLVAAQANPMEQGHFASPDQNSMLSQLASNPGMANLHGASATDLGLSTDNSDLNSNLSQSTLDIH
Procedure, shortened: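 Cells: A549 HiBiT-tagged lines, 0.2×10^4/well, F-12K + 10% HI-FBS, equilibrated overnight. Tx: serial dilution of cpd (10 mM DMSO stock). Readout: HiBiT lytic reagent, 10 min RT shaking, luminescence → potency, Dmax.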

CBP = target: T2, CBP (Homo sapiens, UniProt Q92793); experiment: CBP degradation, HiBit technology in A549 CBP HiBit cells (24 h); format: cell-based; conditions: 24 hrs post treatment
T2 construct: host or cells: A549 CBP HiBit cells
T2 sequence (Q92793 whole entry): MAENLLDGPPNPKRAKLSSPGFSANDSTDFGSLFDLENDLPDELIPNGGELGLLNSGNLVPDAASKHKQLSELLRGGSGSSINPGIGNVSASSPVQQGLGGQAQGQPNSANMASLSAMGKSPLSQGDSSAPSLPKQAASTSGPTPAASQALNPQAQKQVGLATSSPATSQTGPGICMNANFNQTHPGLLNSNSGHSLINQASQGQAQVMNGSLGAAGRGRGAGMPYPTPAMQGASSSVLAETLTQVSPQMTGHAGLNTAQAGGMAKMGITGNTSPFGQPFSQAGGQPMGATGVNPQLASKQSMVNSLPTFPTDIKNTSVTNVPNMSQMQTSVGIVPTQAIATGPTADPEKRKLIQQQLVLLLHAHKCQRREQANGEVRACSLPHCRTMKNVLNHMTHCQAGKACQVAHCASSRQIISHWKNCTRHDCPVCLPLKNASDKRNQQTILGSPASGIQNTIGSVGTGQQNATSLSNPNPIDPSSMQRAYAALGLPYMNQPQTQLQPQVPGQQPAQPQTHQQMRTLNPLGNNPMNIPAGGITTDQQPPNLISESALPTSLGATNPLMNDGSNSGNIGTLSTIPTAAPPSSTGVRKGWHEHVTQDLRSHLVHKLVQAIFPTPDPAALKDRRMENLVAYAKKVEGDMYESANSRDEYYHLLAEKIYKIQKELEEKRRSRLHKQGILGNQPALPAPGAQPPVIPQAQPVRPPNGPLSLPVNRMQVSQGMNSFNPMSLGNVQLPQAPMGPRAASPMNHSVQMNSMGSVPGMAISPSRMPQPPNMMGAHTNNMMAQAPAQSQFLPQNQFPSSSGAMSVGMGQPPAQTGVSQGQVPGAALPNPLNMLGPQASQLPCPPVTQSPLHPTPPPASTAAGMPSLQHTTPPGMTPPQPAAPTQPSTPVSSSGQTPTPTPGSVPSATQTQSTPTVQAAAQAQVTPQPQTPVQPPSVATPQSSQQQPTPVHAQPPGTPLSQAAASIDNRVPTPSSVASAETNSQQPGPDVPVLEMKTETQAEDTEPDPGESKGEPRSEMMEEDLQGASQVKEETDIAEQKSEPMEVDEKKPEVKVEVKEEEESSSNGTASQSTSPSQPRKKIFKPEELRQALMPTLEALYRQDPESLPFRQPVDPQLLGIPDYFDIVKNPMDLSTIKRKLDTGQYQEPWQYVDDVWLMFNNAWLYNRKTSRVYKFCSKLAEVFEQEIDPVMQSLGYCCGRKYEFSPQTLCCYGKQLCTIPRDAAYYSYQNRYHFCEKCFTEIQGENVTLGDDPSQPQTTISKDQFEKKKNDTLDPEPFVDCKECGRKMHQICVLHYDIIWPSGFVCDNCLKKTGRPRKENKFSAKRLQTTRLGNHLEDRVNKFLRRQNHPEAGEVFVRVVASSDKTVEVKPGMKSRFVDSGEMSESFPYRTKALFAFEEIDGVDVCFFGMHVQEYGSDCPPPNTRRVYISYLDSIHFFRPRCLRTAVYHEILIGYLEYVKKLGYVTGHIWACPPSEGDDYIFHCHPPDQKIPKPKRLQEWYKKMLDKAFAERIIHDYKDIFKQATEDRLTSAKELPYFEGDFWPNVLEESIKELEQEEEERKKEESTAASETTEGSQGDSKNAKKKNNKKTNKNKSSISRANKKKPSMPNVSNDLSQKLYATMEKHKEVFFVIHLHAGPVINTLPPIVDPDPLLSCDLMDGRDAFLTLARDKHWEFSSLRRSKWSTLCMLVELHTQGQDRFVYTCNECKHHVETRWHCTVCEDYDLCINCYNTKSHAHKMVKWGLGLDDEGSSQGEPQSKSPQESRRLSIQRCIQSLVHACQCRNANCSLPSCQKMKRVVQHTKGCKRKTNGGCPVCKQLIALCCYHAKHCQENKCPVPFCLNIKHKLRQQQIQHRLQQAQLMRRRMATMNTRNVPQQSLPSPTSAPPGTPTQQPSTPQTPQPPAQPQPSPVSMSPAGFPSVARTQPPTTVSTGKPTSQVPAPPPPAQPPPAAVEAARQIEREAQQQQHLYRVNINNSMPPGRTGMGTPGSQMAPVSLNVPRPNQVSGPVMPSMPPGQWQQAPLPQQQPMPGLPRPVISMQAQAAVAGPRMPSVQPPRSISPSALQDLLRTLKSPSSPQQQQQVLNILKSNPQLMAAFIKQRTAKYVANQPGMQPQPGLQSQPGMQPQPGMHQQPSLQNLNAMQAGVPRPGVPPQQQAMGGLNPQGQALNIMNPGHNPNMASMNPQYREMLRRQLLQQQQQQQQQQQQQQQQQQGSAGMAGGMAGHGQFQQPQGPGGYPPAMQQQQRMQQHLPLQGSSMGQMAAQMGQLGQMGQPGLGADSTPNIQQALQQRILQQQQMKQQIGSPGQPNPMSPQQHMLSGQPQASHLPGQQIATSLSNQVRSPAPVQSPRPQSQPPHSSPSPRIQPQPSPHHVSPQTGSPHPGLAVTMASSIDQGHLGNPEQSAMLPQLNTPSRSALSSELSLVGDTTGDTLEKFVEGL
Experimental: p300 and CBP degradation potency and Dmax were determined using in cell western (ICW) assay technology in H1299 cells or HiBit technology in A549 HiBit cells.
A549 P300 HiBit and A549 CBP HiBit cells were plated in separate 384-well, TC treated, white-opaque, flat-bottomed microplate. Cells were plated at a cell density of 0.2×10^4 cells per well in assay media comprised of F-12K, 10% heat inactivated FBS, and 1% penicillin/streptomycin. Assay microplates containing HiBit cells were placed in a 37° C., 5% CO2, tissue culture incubator and left to equilibrate overnight. The next day cells were treated with serial dilutions of test compound made up of 10 mM stock solutions in DMSO. 384-Well plates containing treated cells were then placed back into a 37° C., 5% CO2, tissue culture incubator. Assay microplates containing A549 P300 HiBit cells were incubated for 2 hrs post treatment before P300 destruction was assessed, while microplates containing A549 CBP HiBit cells were incubated for 24 hrs post treatment before CBP destruction was determined. On the day of each assay time point, microplates were removed from the tissue culture incubator and prepared HiBit Lytic detection buffer (Promega, cat #N3O40) was added to each plate. Plates were covered with aluminum foil and incubated for ten minutes at room temperature on an orbital shaker. After incubation, luminescent signal of each plate was measured using the Envision instrument (Perkin Elmer).

| Dmax (p300) [%] | DC50 (p300) [nM] | DC50 (CBP) [nM] | Dmax (CBP) [%] | SMILES |
| --- | --- | --- | --- | --- |
| > 80 | 10 to 99 | > 1000 | < 20 | Cc1cc(-c2ccc(N(C)c3cc(C(C)C)c4c(c3)n(C)c(=O)n4C)cn2)cnc1C(=O)NCC#Cc1cccc(NC2CCC(=O)NC2=O)c1 (stereo not shown) [Example A34, N-(3-(3-((2,6-Dioxopiperidin-3-yl)amino)phenyl)prop-2-yn-1-yl)-5-((7-isopropyl-1,3-dimethyl-2-oxo-2,3-dihydro-1H-benzo[d]imidazol-5-yl)(methyl)amino)-5′-methyl-[2,3′-bipyridine]-6′-carboxamide] |
| > 80 | 1 to 9.9 | 100 to 999 | 20 to 39 | CC(C)c1cc(-c2cccc3cc(-c4ccc(C(=O)NCC#Cc5ccc6cnn(C7CCC(=O)NC7=O)c6c5Cl)nc4)ncc23)cc2c1n(C)c(=O)n2C (stereo not shown) [Example A39, N-(3-(7-Chloro-1-(2,6-dioxopiperidin-3-yl)-1H-indazol-6-yl)prop-2-yn-1-yl)-5-(8-(7-isopropyl-1,3-dimethyl-2-oxo-2,3-dihydro-1H-benzo[d]imidazol-5-yl)isoquinolin-3-yl)picolinamide] |
| > 80 | 1 to 9.9 | > 1000 | < 20 | Cc1cc(-c2ccc(N(C)c3cc(C4CCOCC4)c4c(c3)n(C)c(=O)n4C)cn2)cnc1C(=O)NCC#Cc1cccc(NC2CCC(=O)NC2=O)c1 (stereo not shown) [Example A45, 5-((1,3-dimethyl-2-oxo-7-(tetrahydro-2H-pyran-4-yl)-2,3-dihydro-1H-benzo[d]imidazol-5-yl) (methyl)amino)-N-(3-(3-((2,6-dioxopiperidin-3-yl)amino)phenyl)prop-2-yn-1-yl)-5′-methyl-[2,3′-bipyridine]-6′-carboxamide] |
| > 80 | 1 to 9.9 | > 1000 | < 20 | Cc1cc(-c2ncc(N(C)c3cc(C(C)C)c4c(c3)n(C)c(=O)n4C)cn2)cnc1C(=O)NCC#Cc1cccc(NC2CCC(=O)NC2=O)c1 (stereo not shown) [Example A51, N-(3-(3-((2,6-dioxopiperidin-3-yl)amino)phenyl)prop-2-yn-1-yl)-5-(5-((7-isopropyl-1,3-dimethyl-2-oxo-2,3-dihydro-1H-benzo [d]imidazol-5-yl)(methyl)amino)pyrimidin-2-yl)-3-methylpicolinamide] |
| > 80 | < 1 | > 1000 | < 20 | Cc1cc(-c2ncc(N(C)c3cc(C4CCOCC4)c4c(c3)n(C)c(=O)n4C)cn2)cnc1C(=O)NCC#Cc1ccc2occ(C3CCC(=O)NC3=O)c2c1 (stereo not shown) [Example A53, 5-(5-((1,3-dimethyl-2-oxo-7-(tetrahydro-2H-pyran-4-yl)-2,3-dihydro-1H-benzo[d]imidazol-5-yl)(methyl)amino)pyrimidin-2-yl)-N-(3-(3-(2,6-dioxo-piperidin-3-yl)benzofuran-5-yl)prop-2-yn-1-yl)-3-methylpicolinamide] |
| > 80 | 1 to 9.9 | > 1000 | < 20 | Cc1cc(-c2ncc(N(C)c3cc(C4CCOCC4)c4c(c3)n(C)c(=O)n4C)cn2)cnc1C(=O)NCC#Cc1ccc2occ([C@H]3CCC(=O)NC3=O)c2c1 [Example A54, (R)-5-(5-((1,3-dimethyl-2-oxo-7-(tetrahydro-2H-pyran-4-yl)-2,3-dihydro-1H-benzo[d]imidazol-5-yl)(methyl)amino)pyrimidin-2-yl)-N-(3-(3-(2,6-dioxopiperidin-3-yl)benzofuran-5-yl)prop-2-yn-1-yl)-3-methylpicolinamide] |
| > 80 | 1 to 9.9 | > 1000 | < 20 | Cc1cc(-c2ncc(N(C)c3cc(C4CCOCC4)c4c(c3)n(C)c(=O)n4C)cn2)cnc1C(=O)NCC#Cc1ccc2occ([C@@H]3CCC(=O)NC3=O)c2c1 [Example A55, (S)-5-(5-((1,3-dimethyl-2-oxo-7-(tetrahydro-2H-pyran-4-yl)-2,3-dihydro-1H-benzo[d]imidazol-5-yl)(methyl)amino)pyrimidin-2-yl)-N-(3-(3-(2,6-dioxo-piperidin-3-yl)benzofuran-5-yl)prop-2-yn-1-yl)-3-methylpicolinamide] |
| > 80 | 10 to 99 | > 1000 | < 20 | CC(C)c1cc(C2=CC(C)(C)Oc3cc(-c4ccc(C(=O)NCC#Cc5ccc6occ(C7CCC(=O)NC7=O)c6c5)nc4)c(F)cc32)cc2c1n(C)c(=O)n2C (stereo not shown) [Example A57, N-(3-(3-(2,6-dioxopiperidin-3-yl)benzofuran-5-yl)prop-2-yn-1-yl)-5-(6-fluoro-4-(7-isopropyl-1,3-dimethyl-2-oxo-2,3-dihydro-1H-benzo[d]imidazol-5-yl)-2,2-dimethyl-2H-chromen-7-yl)picolinamide] |
| > 80 | 1 to 9.9 | > 1000 | < 20 | CC(C)c1cc(N2CCOc3cc(-c4ccc(C(=O)NCC#Cc5ccc6occ(C7CCC(=O)NC7=O)c6c5)nc4)ncc32)cc2c1n(C)c(=O)n2C (stereo not shown) [Example A58, N-(3-(3-(2,6-dioxopiperidin-3-yl)benzofuran-5-yl)prop-2-yn-1-yl)-5-(4-(7-isopropyl-1,3-dimethyl-2-oxo-2,3-dihydro-1H-benzo[d]imidazol-5-yl)-3,4-dihydro-2H-pyrido[4,3-b][1,4]oxazin-7-yl)picolinamide] |
| > 80 | 1 to 9.9 | > 1000 | < 20 | Cc1cc(-c2cc3cccc(-c4ccc5c(c4)n(C)c(=O)n5C)c3cn2)cnc1C(=O)NCC#Cc1ccc2occ([C@@H]3CCC(=O)NC3=O)c2c1 [Example A61, (S)-5-(8-(1,3-dimethyl-2-oxo-2,3-dihydro-1H-benzo[d]imidazol-5-yl)isoquinolin-3-yl)-N-(3-(3-(2,6-dioxo-piperidin-3-yl)benzofuran-5-yl)prop-2-yn-1-yl)-3-methylpicolinamide] |
| > 80 | < 1 | 100 to 999 | < 20 | Cc1c(-c2ccc(C(=O)NCC#Cc3ccc4occ(C5CCC(=O)NC5=O)c4c3)nc2)ncc2c(-c3ccc4c(c3)n(C)c(=O)n4C)cccc12 (stereo not shown) [Example A63, 5-(8-(1,3-dimethyl-2-oxo-2,3-dihydro-1H-benzo[d]imidazol-5-yl)-4-methylisoquinolin-3-yl)-N-(3-(3-(2,6-dioxo-piperidin-3-yl)benzofuran-5-yl)prop-2-yn-1-yl)picolinamide] |
| > 80 | 1 to 9.9 | > 1000 | < 20 | Cn1c(=O)n(C)c2c(F)cc(-c3cccc4cc(-c5ccc(C(=O)NCC#Cc6ccc7occ(C8CCC(=O)NC8=O)c7c6)nc5)ncc34)cc21 (stereo not shown) [Example A64, N-(3-(3-(2,6-dioxopiperidin-3-yl)benzofuran-5-yl)prop-2-yn-1-yl)-5-(8-(7-fluoro-1,3-dimethyl-2-oxo-2,3-dihydro-1H-benzo[d]imidazol-5-yl)isoquinolin-3-yl)picolinamide] |
| > 80 | 1 to 9.9 | > 1000 | < 20 | Cc1cc(-c2cc3cccc(-c4cc(F)c5c(c4)n(C)c(=O)n5C)c3cn2)cnc1C(=O)NCC#Cc1ccc2occ(C3CCC(=O)NC3=O)c2c1 (stereo not shown) [Example A66, N-(3-(3-(2,6-dioxopiperidin-3-yl)benzofuran-5-yl)prop-2-yn-1-yl)-5-(8-(7-fluoro-1,3-dimethyl-2-oxo-2,3-dihydro-1H-benzo[d]imidazol-5-yl)isoquinolin-3-yl)-3-methylpicolinamide] |
| > 80 | 1 to 9.9 | > 1000 | < 20 | Cc1cc(N2CCOc3nc(-c4ccc(C(=O)NCC#Cc5ccc6occ(C7CCC(=O)NC7=O)c6c5)nc4)ncc32)cc2c1n(C)c(=O)n2C (stereo not shown) [Example A68, N-(3-(3-(2,6-dioxopiperidin-3-yl)benzofuran-5-yl)prop-2-yn-1-yl)-5-(5-(1,3,7-trimethyl-2-oxo-2,3-dihydro-1H-benzo[d]imidazol-5-yl)-6,7-dihydro-5H-pyrimido [4,5-b][1,4]oxazin-2-yl)picolinamide] |
| > 80 | 1 to 9.9 | > 1000 | < 20 | Cc1cc(-c2cc3cccc(-c4cc5c(c(N6CC7CCC(C6)O7)n4)n(C)c(=O)n5C)c3cn2)cnc1C(=O)NCC#Cc1ccc2occ(C3CCC(=O)NC3=O)c2c1 (stereo not shown) [Example A69, 5-(8-(4-(8-oxa-3-azabicyclo [3.2.1]octan-3-yl)-1,3-dimethyl-2-oxo-2,3-dihydro-1H-imidazo[4,5-c]pyridin-6-yl)isoquinolin-3-yl)-N-(3-(3-(2,6-dioxo-piperidin-3-yl)benzofuran-5-yl)prop-2-yn-1-yl)-3-methylpicolinamide] |
| > 80 | 1 to 9.9 | > 1000 | < 20 | CCN(c1cnc(-c2cnc(C(=O)NCC#Cc3ccc4occ(C5CCC(=O)NC5=O)c4c3)c(C)c2)nc1)c1cc(C(C)C)c2c(c1)n(C)c(=O)n2C (stereo not shown) [Example A70, N-(3-(3-(2,6-dioxopiperidin-3-yl)benzofuran-5-yl)prop-2-yn-1-yl)-5-(5-(ethyl(7-isopropyl-1,3-dimethyl-2-oxo-2,3-dihydro-1H-benzo[d]imidazol-5-yl)amino)pyrimidin-2-yl)-3-methylpicolinamide] |
